{
  "source": "patent US6852531B2",
  "about": "“Compositions and methods for reproducing and modulating mammalian messenger RNA decapping” (University of Medicine & Dentistry of NJ, priority 2000, dated 2005)",
  "key": {"[1]": {"tested_on": "decapping activity in HeLa S100 cytoplasmic extract", "assay": "In vitro decapping assay (release of 7meGDP from cap-labeled RNA, TLC)", "type": "biochemical, human", "settings": "for effect of competitor RNA on decapping of AU-rich element-containing RNA substrate: FIG. 6; for activation of decapping in human cytoplasmic extract: cold cap analog added to standard S100 extract", "experimental": "In one embodiment of a manual procedure, the components are as follows (referred to herein as “standard reaction conditions”): • 1 microliter ^7meGpppG or ^7meGTP competitor (50-500 ng/microliter); • 1 microliter RNA (˜5-200 fmol; labeled at the alpha phosphate of the cap); • 4 microliters S100 extract; and • 4 microliters water.\nThe mixture is incubated at 30° C. for 30 min; aliquots are then taken at designated time points to follow the kinetics of decapping by visualization of the product of decapping, ^7meGDP, by, for example, thin layer chromatography on a cellulose PEI sheet using a mobile phase of 0.45 M ammonium sulfate. Other means for identifying the decapping product are fully embraced herein.\nDecapping assays were performed using conditions adapted from Zhang et al (1999b). 10-50 fmoles of cap-labeled RNAs were incubated with 4 microliters HeLa S100 cytoplasmic extract in a 10 microliter reaction in the presence of CE buffer (50 mM Tris pH 7.9, 30 mM (NH4)2SO4, 1 mM MgCl2) and 20 micromolar cap analog (where indicated). Reaction mixtures were incubated at 30° C. for the times indicated and stopped by the addition of 1 microliter of 0.25 M EDTA. Reaction products were separated and identified by thin layer chromatography on PEI cellulose sheets developed in 450 mM (NH4)2SO4. Quantitation was performed using a Molecular Dynamics Phosphorimager. Twenty micrograms of ^7meGMP and ^7meGDP were routinely spotted on TLC plates along with reaction samples to serve as markers that could be visualized by UV shadowing."}, "[2]": {"tested_on": "unidentified 40 kDa species (ARE-specific RNA binding protein)", "assay": "UV cross-linking of ARE-binding proteins with ARE competitor RNA", "parameters": "species or system human", "settings": "S100 extract", "experimental": "(§1) UV cross-linking analysis was performed as described (Wilusz and Shenk, 1988). Briefly, 20-50 fmoles of cap-radiolabeled RNA was incubated in the in vitro decapping assay for 5 min. and then reaction mixtures were irradiated on ice for 10 min. using a 15W germicidal light. RNases A and T1 were added and proteins covalently attached to short radioactive RNA oligomers were analyzed on a 10% acrylamide gel containing SDS. For analysis of UV cross-linked DAN/PARN protein by immunoprecipitation using a polyclonal antibody obtained from M. Wormington (Korner et al., 1998), 400 ul of NET2 buffer (50 mM Tris pH 7.6, 150 mM NaCl, 0.01% NP40) was added to reaction mixtures following RNase treatment and reaction mixtures were centrifuged for 4 min. Pre-cleared samples were incubated on ice with 2-5 microliters of specified rabbit polyclonal antisera for 1 hr. Antigen antibody complexes were collected on protein A-positive Staphylococcus aureus cells, washed five times in RIPA buffer (50 mM Tris, pH 7.6, 150 mM NaCl, 0.1% SDS, 1% NP40, 0.5% deoxycholate), and immunoprecipitated cross-linked proteins were analyzed on a 10 or 15% acrylamide gel containing SDS."}, "[3]": {"molecular_target": "T1, HuR (Homo sapiens, UniProt Q15717)", "T1 construct": "endogenous in cells; host or cells: HeLa spinner cells, S100 cytoplasmic extract", "T1 sequence (Q15717 whole entry)": "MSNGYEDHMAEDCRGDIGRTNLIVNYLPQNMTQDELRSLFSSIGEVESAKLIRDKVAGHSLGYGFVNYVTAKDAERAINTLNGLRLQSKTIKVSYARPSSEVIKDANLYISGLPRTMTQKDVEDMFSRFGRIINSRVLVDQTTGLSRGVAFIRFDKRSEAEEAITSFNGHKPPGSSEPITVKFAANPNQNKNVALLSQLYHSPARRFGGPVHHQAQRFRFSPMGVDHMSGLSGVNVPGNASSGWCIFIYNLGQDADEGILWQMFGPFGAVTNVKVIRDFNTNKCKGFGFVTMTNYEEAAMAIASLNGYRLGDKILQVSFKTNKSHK", "assay": "UV cross-linking of ARE-binding proteins with ARE competitor RNA", "settings": "S100 extract", "experimental": "as §1"}, "[4]": {"molecular_target": "T2, deadenylase DAN/PARN (Homo sapiens, UniProt O95453)", "T2 construct": "incubated HeLa S100 extracts using cap-labeled GemARE-A60 RNA under decapping conditions; endogenous in cells; host or cells: HeLa spinner cells, S100 cytoplasmic extract", "T2 sequence (O95453 1-639)": "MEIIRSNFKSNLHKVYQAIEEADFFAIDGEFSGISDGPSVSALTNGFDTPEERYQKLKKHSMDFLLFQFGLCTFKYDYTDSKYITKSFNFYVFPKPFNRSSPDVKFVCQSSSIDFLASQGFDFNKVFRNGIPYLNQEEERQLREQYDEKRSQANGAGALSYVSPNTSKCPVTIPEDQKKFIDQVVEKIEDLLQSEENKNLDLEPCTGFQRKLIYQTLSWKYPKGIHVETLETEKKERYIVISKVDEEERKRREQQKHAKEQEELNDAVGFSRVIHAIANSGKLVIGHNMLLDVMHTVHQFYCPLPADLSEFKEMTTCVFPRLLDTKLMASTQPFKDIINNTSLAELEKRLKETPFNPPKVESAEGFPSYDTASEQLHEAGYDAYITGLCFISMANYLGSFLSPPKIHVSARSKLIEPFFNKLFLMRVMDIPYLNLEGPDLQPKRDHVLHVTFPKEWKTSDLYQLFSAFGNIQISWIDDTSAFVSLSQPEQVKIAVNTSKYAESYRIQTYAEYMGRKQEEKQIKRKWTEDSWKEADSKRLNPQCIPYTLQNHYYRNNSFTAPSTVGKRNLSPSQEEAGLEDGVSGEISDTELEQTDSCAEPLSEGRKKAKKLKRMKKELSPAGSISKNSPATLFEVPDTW", "assay": "UV cross-linking / immunoprecipitation of DAN/PARN", "type": "binding", "experimental": "as §1"}, "[5]": {"molecular_target": "T3, 24 kDa cap binding protein (eIF4E) (Homo sapiens, UniProt P06730)", "T3 construct": "endogenous in cells; host or cells: HeLa spinner cells, S100 cytoplasmic extract", "T3 sequence (P06730 whole entry)": "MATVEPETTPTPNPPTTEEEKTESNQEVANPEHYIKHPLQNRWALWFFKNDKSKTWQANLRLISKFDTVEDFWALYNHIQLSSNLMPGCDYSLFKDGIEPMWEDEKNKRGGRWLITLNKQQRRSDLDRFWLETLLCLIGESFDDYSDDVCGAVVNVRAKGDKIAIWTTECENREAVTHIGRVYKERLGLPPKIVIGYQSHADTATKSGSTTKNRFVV", "assay": "UV cross-linking of cap-labeled RNA to cap-binding proteins", "experimental": "as §1"}, "[6]": {"settings": "5 micromolar cap analog, FIG. 2D"}, "[7]": {"settings": "titration, GemARE-A0 RNA, FIG. 2D"}},
  "data": [
    {"compound": "5′-GGAUUAACUAAUUGAUACCGCGUAUACACGCGG (RNA, backbone not given here) [control competitor RNA]", "values": [
      {"measurement": "effect of competitor RNA on decapping of AU-rich element-containing RNA substrate", "setting": "[1]; with cap analog", "value": "no effect on decapping efficiency"}
    ]},
    {"compound": "5′AUUAUUUAUUAUUUAUUUAUUAUUUAUUUAUUUA (RNA, backbone not given here) [ARE competitor RNA]", "values": [
      {"measurement": "competition of 40 kDa species cross-linking", "setting": "[2]", "value": "competed"},
      {"measurement": "competition of HuR cross-linking", "setting": "[3]", "value": "competed"},
      {"measurement": "substrate dependence of the reduction in decapping efficiency", "setting": "[1]; Gem-A0 versus GemARE-A0, FIG. 6B", "value": "only observed with RNA substrates that contained an AU-rich element"},
      {"measurement": "effect of competitor RNA on decapping of AU-rich element-containing RNA substrate", "setting": "[1]; with cap analog", "value": "significantly reduced decapping"}
    ]},
    {"compound": "Nc1nc2c(ncn2[C@@H]2O[C@H](COP(=O)(O)OP(=O)(O)OP(=O)(O)OC[C@H]3O[C@@H](n4cnc5c(=O)[nH]c(N)nc54)[C@H](O)[C@@H]3O)[C@@H](O)[C@H]2O)c(=O)[nH]1", "note": "[GpppG]", "values": [
      {"measurement": "ability of methylated versus non-methylated cap analogs to activate decapping", "setting": "[1]; HeLa S100, cap-labeled GemARE-A60 RNA, FIG. 2A", "value": "the presence of the methyl group on the cap analog was absolutely required to activate decapping"}
    ]},
    {"compound": "Cn1c[n+]([C@@H]2O[C@H](COP(=O)([O-])OP(=O)(O)OP(=O)(O)O)[C@@H](O)[C@H]2O)c2nc(N)[nH]c(=O)c21", "note": "[^7meGTP]", "values": [
      {"measurement": "activation of decapping in human cytoplasmic extract", "setting": "[1]", "value": "activates the human cytoplasmic extract"}
    ]},
    {"compound": "Cn1c[n+]([C@@H]2O[C@H](COP(=O)(O)OP(=O)(O)OP(=O)(O)OC[C@H]3O[C@@H](n4cnc5c(=O)[nH]c(N)nc54)[C@H](O)[C@@H]3O)[C@@H](O)[C@H]2O)c2nc(N)[nH]c(=O)c21", "note": "[^7meGpppG]", "values": [
      {"measurement": "full sequestration of DAN/PARN", "setting": "[4]; [6]", "value": "not"},
      {"measurement": "competition for cap binding by DAN/PARN", "setting": "[4]; FIG. 2C", "value": "specifically competed"},
      {"measurement": "amount required to fully sequester DAN/PARN", "setting": "[4]; FIG. 2D", "value": 10, "unit": "µM"},
      {"measurement": "sequestration of 24 kDa cap binding protein", "setting": "[5]; [6]", "value": "fully sequestered"},
      {"measurement": "competition for cross-linking of 24 kDa protein to cap", "setting": "[5]; increasing amounts, HeLa S100, FIG. 2B", "value": "specifically competed"},
      {"measurement": "activation of decapping of RNA substrates (accumulation of 7meGDP)", "setting": "[1]; 20 micromolar, 3 independently prepared HeLa cytoplasmic extracts, FIG. 1B", "value": "activated decapping"},
      {"measurement": "activation of decapping in human cytoplasmic extract", "setting": "[1]", "value": "activates the human cytoplasmic extract"},
      {"measurement": "amount of cap analog giving only partial activation of decapping", "setting": "[1]; [7]", "value": 5, "unit": "micromolar"},
      {"measurement": "amount of cap analog required for full activation of decapping", "setting": "[1]; [7]", "value": 10, "unit": "micromolar"}
    ]},
    {"compound": "poly(C)", "values": [
      {"measurement": "effect of other homopolymer on decapping", "setting": "[1]; all RNA substrates tested, with cap analog, FIG. 4B", "value": "did not appreciably affect decapping"}
    ]}
  ]
}
